Patent publication US8420657B2 (Novartis AG, priority 2008, dated 2013)

Assays:
GST-JAK2(808-1132) = target: T1, GST-JAK2(808-1132) (Homo sapiens, UniProt O60674); assay: JAK2 kinase assay (Caliper mobility shift, LabChip 3000); type: biochemical
T1 construct: GST-JAK2(808-1132); purchased Invitrogen (Carlsbad, USA) #4288
How it was run: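 Recombinant GST-JAK2(808-1132) kinase domain with FITC-labelled JAK3tide peptide substrate and ATP; 60 min at 30 °C, EDTA stop. Substrate/product ratio read by microfluidic mobility shift; compounds at 8 final concentrations, 10 to 0.003 μM.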

[1] = tested on: JAK1/JAK2-dependent nuclear translocation of STAT1-GFP in HT1080 fibrosarcoma cells; assay: STAT1 nuclear translocation assay (Cellomics), IFN-γ stimulated HT1080 STAT1-GFP cells; type: cell-based
How it was run: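 HT1080 cells stably expressing STAT1-GFP, pre-treated 30 min with compound (10 μM–0.003 μM, 0.1% DMSO), then stimulated 2 h with 100 ng/ml IFN-γ, fixed and Hoechst-stained. Nuclear-cytoplasmic GFP differential imaged over ≥1000 cells/well, normalised to unstimulated and DMSO-stimulated wells for IC50.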

[2] = Homo sapiens, HT-1080, STAT1 translocation pathway

T1 sequence (O60674 808-1132): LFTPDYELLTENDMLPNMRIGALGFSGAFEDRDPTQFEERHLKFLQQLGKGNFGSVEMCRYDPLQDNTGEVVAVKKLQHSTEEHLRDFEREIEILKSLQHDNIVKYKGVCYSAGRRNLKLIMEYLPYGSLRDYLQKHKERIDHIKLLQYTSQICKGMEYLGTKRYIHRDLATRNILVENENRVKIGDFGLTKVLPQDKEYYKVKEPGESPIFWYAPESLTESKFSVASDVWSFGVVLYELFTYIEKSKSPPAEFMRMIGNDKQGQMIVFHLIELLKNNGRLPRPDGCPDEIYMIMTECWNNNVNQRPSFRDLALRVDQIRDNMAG

Structure (SMILES) | IC50 (GST-JAK2(808-1132)) | IC50 [1, 2] | IC50 ([1]; STAT1 translocation pathway)
Cc1ccc(Nc2ncc3ccn(-c4ccc(C(=O)NCCN5CCOCC5)c(F)c4)c3n2)cc1C [Example 297, 4-[2-(3,4-Dimethyl-phenylamino)-pyrrolo[2,3-d]pyrimidin-7-yl]-2-fluoro-N-(2-morpholin-4-yl-ethyl)-benzamide] | 30 nM | 2140 nM | –
O=C(c1c(F)cc(-n2ccc3cnc(Nc4cccnc4)nc32)cc1F)N1CCOCC1 [Example 216, {2,6-Difluoro-4-[2-(pyridin-3-ylamino)-pyrrolo[2,3-d]pyrimidin-7-yl]-phenyl}-morpholin-4-yl-methanone] | 3.3 nM | 579 nM | –
COc1cc(Nc2ncc3ccn(-c4ccc(S(C)(=O)=O)cc4)c3n2)cc(OC)c1OC [Example 4, [7-(4-Methanesulfonyl-phenyl)-7H-pyrrolo[2,3-d]pyrimidin-2-yl]-(3,4,5-trimethoxy-phenyl)-amine] | 2.2 nM | 36.7 nM | –
O=C(c1c(F)cc(-n2ccc3cnc(Nc4ccncc4)nc32)cc1F)N1CCOCC1 [Example 217, {2,6-Difluoro-4-[2-(pyridin-4-ylamino)-pyrrolo[2,3-d]pyrimidin-7-yl]-phenyl}-morpholin-4-yl-methanone] | 7.3 nM | 993 nM | –
COc1cc(Nc2ncc3ccn(-c4cc(F)c(CN5CCOCC5)c(F)c4)c3n2)ccc1C [Example 307, [7-(3,5-Difluoro-4-morpholin-4-ylmethyl-phenyl)-7H-pyrrolo[2,3-d]pyrimidin-2-yl]-(3-methoxy-4-methyl-phenyl)-amine] | 14 nM | 120 nM | –
CCN1CCCC1CNC(=O)c1cc(Nc2ncc3ccn(-c4ccc(S(C)(=O)=O)cc4)c3n2)ccc1F (stereo not shown) [Example 78, N-(1-Ethyl-pyrrolidin-2-ylmethyl)-2-fluoro-5-[7-(4-methanesulfonyl-phenyl)-7H-pyrrolo[2,3-d]pyrimidin-2-ylamino]-benzamide] | 29 nM | 545 nM | –
O=C(c1ccc(Nc2ncc3ccn(-c4cc(F)c(CN5CCOCC5)c(F)c4)c3n2)cn1)N1CCOCC1 [Example 195, {5-[7-(3,5-Difluoro-4-morpholin-4-ylmethyl-phenyl)-7H-pyrrolo[2,3-d]pyrimidin-2-ylamino]-pyridin-2-yl}-morpholin-4-yl-methanone] | 5.3 nM | 352 nM | –
Cc1ccc(Nc2ncc3ccn(-c4ccc(C(=O)N5CCOCC5)cc4)c3n2)cc1F [Example 233, {4-[2-(3-Fluoro-4-methyl-phenylamino)-pyrrolo[2,3-d]pyrimidin-7-yl]-phenyl}-morpholin-4-yl-methanone] | 6.4 nM | 1180 nM | –
CS(=O)(=O)c1ccc(-n2ccc3cnc(Nc4ccc(OCCN5CCOCC5)cc4)nc32)cc1 [Example 34, [7-(4-Methanesulfonyl-phenyl)-7H-pyrrolo[2,3-d]pyrimidin-2-yl]-[4-(2-morpholin-4-yl-ethoxy)-phenyl]-amine] | < 3 nM | 69.5 nM | –
O=S1(=O)CCN(Cc2c(F)cc(-n3ccc4cnc(Nc5ccccc5)nc43)cc2F)CC1 [Example 180, {7-[4-(1,1-Dioxido-thiomorpholin-4-ylmethyl)-3,5-difluoro-phenyl]-7H-pyrrolo[2,3-d]pyrimidin-2-yl}-phenyl-amine] | < 3 nM | 120 nM | –
OCCN1CCN(c2ccc(Nc3ncc4ccn(-c5cc(F)c(CN6CCOCC6)c(F)c5)c4n3)cn2)CC1 [Example 265, 2-(4-{5-[7-(3,5-Difluoro-4-morpholin-4-ylmethyl-phenyl)-7H-pyrrolo[2,3-d]pyrimidin-2-ylamino]-pyridin-2-yl}-piperazin-1-yl)-ethanol] | < 3 nM | 40 nM | –
CC(=O)c1ccc(-n2ccc3cnc(Nc4ccc(OC(C)C)cc4)nc32)cc1 [Example 86, 11-{4-[2-(4-Isopropoxy-phenylamino)-pyrrolo[2,3-d]pyrimidin-7-yl]-phenyl}-ethanone] | 8 nM | 13000 nM | –
CN(C)CCN(C(=O)c1cccc(Nc2ncc3ccn(-c4ccc(S(C)(=O)=O)cc4)c3n2)c1)c1ccccc1 [Example 48, N-(2-Dimethylamino-ethyl)-3-[7-(4-methanesulfonyl-phenyl)-7H-pyrrolo[2,3-d]pyrimidin-2-ylamino]-N-phenyl-benzamide] | 27 nM | 4210 nM | –
Cc1ccc(Nc2ncc3ccn(-c4ccc(CC(=O)N5CCOCC5)cc4)c3n2)cc1C [Example 166, 2-{4-[2-(3,4-Dimethyl-phenylamino)-pyrrolo[2,3-d]pyrimidin-7-yl]-phenyl}-1-morpholin-4-yl-ethanone] | 3.4 nM | 145 nM | –
CN1CCN(Cc2cccc(Nc3ncc4ccn(-c5cc(F)c(C(=O)N6CCOCC6)c(F)c5)c4n3)c2)CC1 [Example 245, (2,6-Difluoro-4-{2-[3-(4-methyl-piperazin-1-ylmethyl)-phenylamino]-pyrrolo[2,3-d]pyrimidin-7-yl}-phenyl)-morpholin-4-yl-methanone] | < 3 nM | 430 nM | –
CCOc1ccc(Nc2ncc3cc(C)n(-c4ccc(C(=O)N5CCOCC5)c(F)c4)c3n2)cc1OCC [Example 287, {4-[2-(3,4-Diethoxy-phenylamino)-6-methyl-pyrrolo[2,3-d]pyrimidin-7-yl]-2-fluoro-phenyl}-morpholin-4-yl-methanone] | 46.5 nM | 441 nM | –
Cc1ccc(Nc2ncc3ccn(-c4cc(F)c(CN5CCN(C(C)C)CC5)c(F)c4)c3n2)cc1C [Example 305, {7-[3,5-Difluoro-4-(4-isopropyl-piperazin-1-ylmethyl)-phenyl]-7H-pyrrolo[2,3-d]pyrimidin-2-yl}-(3,4-dimethyl-phenyl)-amine] | 26 nM | 2680 nM | –
Cc1cc(-n2ccc3cnc(Nc4ccc(OC(C)C)cc4)nc32)ccc1C(=O)N1CCOCC1 [Example 100, {4-[2-(4-Isopropoxy-phenylamino)-pyrrolo[2,3-d]pyrimidin-7-yl]-2-methyl-phenyl}-morpholin-4-yl-methanone] | < 3 nM | 510 nM | –
CC(C)Oc1ccc(Nc2ncc3ccn(-c4ccc(CN5CCOCC5)c(F)c4)c3n2)cc1 [Example 97, [7-(3-Fluoro-4-morpholin-4-ylmethyl-phenyl)-7H-pyrrolo[2,3-d]pyrimidin-2-yl]-(4-isopropoxy-phenyl)-amine] | 9.4 nM | 1460 nM | –
CS(=O)(=O)c1ccc(-n2ccc3cnc(Nc4ccc(N5CCNC6(CC6)C5)nc4)nc32)cc1 [Example 272, [6-(4,7-Diaza-spiro[2.5]oct-7-yl)-pyridin-3-yl]-[7-(4-methanesulfonyl-phenyl)-7H-pyrrolo[2,3-d]pyrimidin-2-yl]-amine] | 11 nM | 175 nM | –
CS(=O)(=O)c1ccc(-n2ccc3cnc(Nc4ccc(C(=O)N5CCOCC5)cc4)nc32)cc1 [Example 30, {4-[7-(4-Methanesulfonyl-phenyl)-7H-pyrrolo[2,3-d]pyrimidin-2-ylamino]-phenyl}-morpholin-4-yl-methanone] | < 3 nM | 204 nM | –
CN1CCN(C(=O)c2ccc(Nc3ncc4ccn(-c5ccc(S(C)(=O)=O)cc5)c4n3)cc2C(F)(F)F)CC1 [Example 72, {4-[7-(4-Methanesulfonyl-phenyl)-7H-pyrrolo[2,3-d]pyrimidin-2-ylamino]-2-trifluoromethyl-phenyl}-(4-methyl-piperazin-1-yl)-methanone] | 3.7 nM | 750 nM | –
COc1ccc(Nc2ncc3ccn(-c4ccc(S(C)(=O)=O)cc4)c3n2)cn1 [Example 230, [7-(4-Methanesulfonyl-phenyl)-7H-pyrrolo[2,3-d]pyrimidin-2-yl]-(6-methoxy-pyridin-3-yl)-amine] | 20.5 nM | 2480 nM | –
Cc1cc(Nc2ncc3ccn(-c4ccc(CN5CCOCC5)cc4)c3n2)ccc1F [Example 123, (4-Fluoro-3-methyl-phenyl)-[7-(4-morpholin-4-ylmethyl-phenyl)-7H-pyrrolo[2,3-d]pyrimidin-2-yl]-amine] | 28 nM | 802 nM | –
Cc1ccc(Nc2ncc3ccn(-c4ccc(C(=O)N5CCOCC5)c(F)c4)c3n2)cc1C [Example 152, {4-[2-(3,4-Dimethyl-phenylamino)-pyrrolo[2,3-d]pyrimidin-7-yl]-2-fluoro-phenyl}-morpholin-4-yl-methanone] | 3.5 nM | 168 nM | –
CC(C)Oc1ccc(Nc2ncc3ccn(-c4ccc(S(C)(=O)=O)cc4)c3n2)cc1 [Example 3, (4-Isopropoxy-phenyl)-[7-(4-methanesulfonyl-phenyl)-7H-pyrrolo[2.3-d]pyrimidin-2-yl]-amine] | 9.4 nM | – | 98.5 nM
CCN1CCCC1CNC(=O)c1ccc(Nc2ncc3ccn(-c4ccc(S(C)(=O)=O)cc4)c3n2)cc1 (stereo not shown) [Example 68, N-(1-Ethyl-pyrrolidin-2-ylmethyl)-4-[7-(4-methanesulfonyl-phenyl)-7H-pyrrolo[2,3-d]pyrimidin-2-ylamino]-benzamide] | < 3 nM | 105 nM | –
O=C1CN(Cc2c(F)cc(-n3ccc4cnc(Nc5ccc(CN6CCN(C7CC7)CC6)cc5)nc43)cc2F)CCN1 [Example 340, 4-(4-{2-[4-(4-Cyclopropyl-piperazin-1-ylmethyl)-phenylamino]-pyrrolo[2,3-d]pyrimidin-7-yl}-2,6-difluoro-benzyl)-piperazin-2-one] | 7.2 nM | 270 nM | –
COc1cc(Nc2ncc3ccn(-c4ccc(C(=O)N5CCOCC5)c(F)c4)c3n2)ccc1Cl [Example 295, {4-[2-(4-Chloro-3-methoxy-phenylamino)-pyrrolo[2,3-d]pyrimidin-7-yl]-2-fluoro-phenyl}-morpholin-4-yl-methanone] | 14.5 nM | 795 nM | –
